Data taken from patent US20030144346A1, “Methods and compositions for regulation of 5-alpha reductase activity” (priority 1997, published 2003).
Like-named read-outs stand apart in the source and are kept apart here.

How the values were obtained:
[1] = target: T1, type 1 human 5α-reductase (HRED1) (Homo sapiens, UniProt P18405); assay: Cell free assay of 5α-reductase, microsomes of rat 1A cells expressing type 1 isoenzyme (HRED1); assay type: biochemical; set-up: expressed in transfected cells; host or cells: rat 1A cells infected with pMV7 retrovirus; microsomes;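 further: microsomes from rat 1A cells expressing human type 1 5α-reductase, conversion of radiolabeled testosterone to dihydrotestosterone quantified by thin layer chromatography with radioanalytic scanning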
T1 sequence (P18405 1-259): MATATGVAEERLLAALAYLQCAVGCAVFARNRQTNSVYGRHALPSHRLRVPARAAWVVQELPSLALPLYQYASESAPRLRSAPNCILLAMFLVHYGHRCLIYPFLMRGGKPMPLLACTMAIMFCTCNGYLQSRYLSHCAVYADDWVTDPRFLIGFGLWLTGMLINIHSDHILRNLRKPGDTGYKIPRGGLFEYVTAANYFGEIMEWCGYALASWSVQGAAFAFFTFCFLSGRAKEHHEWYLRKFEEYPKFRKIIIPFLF

[2] = target: T2, type 2 human 5α-reductase (HRED2) (Homo sapiens, UniProt P31213); assay: Cell free assay of 5α-reductase, microsomes of rat 1A cells expressing type 2 isoenzyme (HRED2); assay type: biochemical; set-up: expressed in transfected cells; host or cells: rat 1A cells infected with pMV7 retrovirus; microsomes;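 further: labeled testosterone and its product dihydrotestosterone measured in microsomal reaction extracts via thin layer chromatography plus radioanalytic scanning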
T2 sequence (P31213 1-254): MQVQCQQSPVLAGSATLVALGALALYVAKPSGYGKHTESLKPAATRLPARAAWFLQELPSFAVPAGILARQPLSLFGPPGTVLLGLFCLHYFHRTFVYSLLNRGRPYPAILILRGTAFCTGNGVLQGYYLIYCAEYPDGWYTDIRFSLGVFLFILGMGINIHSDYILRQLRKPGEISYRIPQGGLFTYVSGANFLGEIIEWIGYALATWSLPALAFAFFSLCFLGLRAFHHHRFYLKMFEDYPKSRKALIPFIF

[3] = target: T1, type 1 human 5α-reductase (HRED1); assay: Whole cell assay of 5α-reductase, type 1 isoenzyme; assay type: cell-based; set-up: expressed in transfected cells; host or cells: rat 1A cells infected with pMV7 retrovirus; details: whole cell assay;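 further: intact rat 1A cells engineered to express the human type 1 5α-reductase isozyme serve as the enzyme source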
[4] = cell-free assay, read-out: IC50, type 1 isoenzyme
[5] = cell-free assay, read-out: IC50, type 2 isoenzyme
[6] = 100 uM, cell free assay, Table 1, read-out: HRED1 % Inhibition @ 100 uM
[7] = cell free assay, Table 1 flavanoids, read-out: HRED1 IC50
[8] = 100 uM, cell free assay, Table 1, read-out: HRED2 % Inhibition @ 100 uM
[9] = cell free assay, Table 1 flavanoids, read-out: HRED2 IC50
[10] = cell free assay, Table 2 catechols, read-out: HRED1 IC50
[11] = cell free assay, Table 2 catechols, read-out: HRED2 IC50
[12] = 100 μM, cell free assay, Table 5
[13] = cell free assay, Table 5 epigallocatechin derivatives, read-out: HRED1 IC50
[14] = cell free assay, Table 5 epigallocatechin derivatives, read-out: HRED2 IC50
[15] = 100 uM, cell free assay, Table 2
[16] = 100 μM, cell free assay, Table 4, read-out: HRED1 % Inhibition @ 100 μM
[17] = cell free assay, Table 4 quinones, read-out: HRED1 IC50
[18] = 100 μM, cell free assay, Table 4, read-out: HRED2 % Inhibition @ 100 μM
[19] = cell free assay, Table 4 quinones, read-out: HRED2 IC50
[20] = 100 μM, cell free assay, Table 4

Question: Which results are given for `COc1cc(/C=C/C(=O)O)ccc1O` [Ferulic Acid]?
Answer: inhibition at 100 µM ([1]; 100 uM, cell free assay, Table 3, read-out: HRED1 % Inhibition @ 100 uM): 0%; IC50 ([1]; cell free assay, Table 3 curcumin and related compounds, read-out: HRED1 IC50): > 100 µM; IC50 [1, 4]: > 100 µM; inhibition at 100 µM ([2]; 100 uM, cell free assay, Table 3, read-out: HRED2 % Inhibition @ 100 uM): 18%; IC50 ([2]; cell free assay, Table 3 curcumin and related compounds, read-out: HRED2 IC50): > 100 µM; IC50 [2, 5]: > 100 µM

Question: Which results are given for `O=c1cc(-c2ccccc2)oc2ccccc12` [Flavone]?
Answer: inhibition at 100 µM [1, 6]: 20%; IC50 [1, 7]: > 100 µM; inhibition at 100 µM [2, 8]: -52%; IC50 [2, 9]: > 100 µM

Question: Which results are given for `COc1cc2ccc(=O)oc2c(O)c1O` [Fraxetin]?
Answer: IC50 [1, 10]: > 100 µM; IC50 [2, 11]: > 100 µM

Question: With `O=C(OC1Cc2c(O)cc(O)cc2OC1c1cc(O)c(O)c(O)c1)c1ccccc1` (stereo not drawn) [HZIV 74] as the compound, how does the “HRED1 % Inhibition @ 100 μM” value [1, 12] read?
Answer: Its value is 85%.

Question: And the IC50 [1, 13]?
Answer: The IC50 was 48 µM.

Question: And the “HRED2 % Inhibition @ 100 μM” value [2, 12]?
Answer: The value was 24%.

Question: What about the IC50 [2, 14] of the same compound?
Answer: The IC50 was over 100 µM.

Question: `O=C(O)OC1Cc2c(O)cc(O)cc2OC1c1cc(O)c(O)c(O)c1` (stereo not drawn) [HZIV 109] was tested. Which “HRED1 % Inhibition @ 100 μM” value [1, 12] did it give?
Answer: Its value is 17%.

Question: What about the IC50 [1, 13] of the same compound?
Answer: Its IC50 is over 100 µM.

Question: And the “HRED2 % Inhibition @ 100 μM” value [2, 12]?
Answer: The value was 0%.

Question: And the IC50 [2, 14]?
Answer: The IC50 was over 100 µM.

Question: For `O=C(C=Cc1cc(O)c(O)c(O)c1)OC1Cc2c(O)cc(O)cc2OC1c1cc(O)c(O)c(O)c1` (stereo not drawn) [HZIV 134], which “HRED1 % Inhibition @ 100 μM” value [1, 12] is on record?
Answer: Its value is 99%.

Question: And the IC50 [1, 13]?
Answer: The IC50 was 20 µM.

Question: What about the “HRED2 % Inhibition @ 100 μM” value [2, 12] of the same compound?
Answer: The value was 94%.

Question: What about the IC50 [2, 14] of the same compound?
Answer: Its IC50 is 67 µM.

Question: What does the source list for `O=C(NCCc1cc(O)c(O)c(O)c1)c1cc(O)c(O)c(O)c1` [HZIV 275]?
Answer: HRED1 % Inhibition @ 100 uM [1, 15]: 10%; IC50 [1, 10]: > 100 µM; HRED2 % Inhibition @ 100 uM [2, 15]: 6%; IC50 [2, 11]: > 100 µM

Question: Which inhibition at 100 µM ([1]; 100 uM, cell free assay, Table 2, read-out: HRED1 % Inhibition @ 100 uM) does the source give for `Oc1cc2c(cc1O)[C@@H]1c3ccc(O)c(O)c3OC[C@]1(O)C2` [Hematoxylin] here?
Answer: Its inhibition at 100 µM is 59%.

Question: And the IC50 [1, 10]?
Answer: The IC50 was 83 µM.

Question: What about the inhibition at 100 µM ([2]; 100 uM, cell free assay, Table 2, read-out: HRED2 % Inhibition @ 100 uM) of the same compound?
Answer: The inhibition at 100 µM was 38%.

Question: What about the IC50 [2, 11] of the same compound?
Answer: The IC50 was over 100 µM.

Question: Which “HRED2 % Inhibition @ 100 uM” value [2, 15] does the source give for `NCCc1cc(O)c(O)c(O)c1` [Hydroxydopamine] here?
Answer: The value was 41%.

Question: How did the inhibition at 100 µM [1, 16] turn out when `CC(C)=CCC1=C(O)C(=O)c2ccccc2C1=O` [Lapachol] was run?
Answer: Its inhibition at 100 µM is 30%.

Question: What about the IC50 [1, 17] of the same compound?
Answer: The IC50 was over 100 µM.

Question: And the inhibition at 100 µM [2, 18]?
Answer: The inhibition at 100 µM was 9%.

Question: And the IC50 [2, 19]?
Answer: Its IC50 is over 100 µM.

Question: Which IC50 [1, 7] does the source give for `O=c1c(O)c(-c2ccc(O)cc2O)oc2cc(O)cc(O)c12` [Morin] here?
Answer: The IC50 was over 100 µM.

Question: And the IC50 [2, 9]?
Answer: The IC50 was over 100 µM.

Question: Which results are given for `CC(Cc1ccc(O)c(O)c1)C(C)Cc1ccc(O)c(O)c1` (stereo not drawn) [Nordihydrogaiaretic Acid, Nordihydroguaiaretic acid]?
Answer: inhibitory activity in the whole cell assay, type 1 isoenzyme, in words [3]: active; HRED2 % Inhibition @ 100 uM [2, 15]: 80%

Question: `O=c1c(O)cccc2cc(O)c(O)c(O)c12` [Purpurogallin] was tested. Which IC50 [1, 10] did it give?
Answer: The IC50 was 30 µM.

Question: What about the IC50 [2, 11] of the same compound?
Answer: Its IC50 is over 100 µM.

Question: How did the IC50 [1, 10] turn out when `O=c1ccc2c(-c3ccccc3S(=O)(=O)O)c3ccc(O)c(O)c3oc-2c1O` [Pyrogallol Red] was run?
Answer: Its IC50 is 15 µM.

Question: What about the IC50 [2, 11] of the same compound?
Answer: Its IC50 is over 100 µM.

Question: Which results are given for `O=C1c2ccccc2C(=O)c2c(O)ccc(O)c21` [Quinizarin]?
Answer: inhibition at 100 µM [1, 16]: 26%; IC50 [1, 17]: > 100 µM; inhibition at 100 µM [2, 18]: 7%; IC50 [2, 19]: > 100 µM

Question: For `C[C@@H]1O[C@@H](OC[C@H]2O[C@@H](Oc3c(-c4ccc(O)c(O)c4)oc4cc(O)cc(O)c4c3=O)[C@H](O)[C@@H](O)[C@@H]2O)[C@H](O)[C@H](O)[C@H]1O` [Rutin], which IC50 [1, 7] is on record?
Answer: Its IC50 is over 100 µM.

Question: What about the IC50 [1, 4] of the same compound?
Answer: The IC50 was over 100 µM.

Question: What about the IC50 [2, 9] of the same compound?
Answer: The IC50 was over 100 µM.

Question: What about the IC50 ([2]; read-out: IC50, type 2 isoenzyme) of the same compound?
Answer: Its IC50 is over 100 µM.

Question: Which “HRED1 % Inhibition @ 100 μM” value [1, 20] does the source give for `CC(C)(C)c1cc(O)ccc1O` [T-butylhydroxyquinone] here?
Answer: Its value is 19%.

Question: And the IC50 [1, 17]?
Answer: The IC50 was over 100 µM.

Question: And the “HRED2 % Inhibition @ 100 μM” value [2, 20]?
Answer: Its value is 4%.

Question: And the IC50 [2, 19]?
Answer: The IC50 was over 100 µM.

Question: `O=C1c2c(O)cc(O)cc2O[C@H](c2ccc(O)c(O)c2)[C@H]1O` [Taxifolin] was tested. Which inhibition at 100 µM [1, 6] did it give?
Answer: Its inhibition at 100 µM is 5%.

Question: What about the IC50 [1, 7] of the same compound?
Answer: The IC50 was over 100 µM.

Question: And the IC50 [1, 4]?
Answer: Its IC50 is over 100 µM.

Question: And the inhibition at 100 µM [2, 8]?
Answer: The inhibition at 100 µM was 5%.

Question: And the IC50 [2, 9]?
Answer: Its IC50 is over 100 µM.

Question: And the IC50 [2, 5]?
Answer: The IC50 was over 100 µM.
